Like-named read-outs stand apart in the source and are kept apart here.
Assays:
[1] = system: human marrow stromal cells; conditions: Deng et al. 2001; cited from earlier work
placental stem cells [2] = assay type: cell-based; conditions: after 24 hours of treatment; three independent experiments
placental stem cells [3] = assay type: cell-based
Procedure: Immunocytochemistry and immunofluorescence and RT-PCR. Cultured cells were fixed with 4% paraformaldehyde for 5 minutes at room temperature and permeabilized with 0.1% Triton-X 100 for 20 minutes. Slides were then incubated sequentially with primary antibody overnight at 4° C. For immunocytochemistry, primary antibodies against NSE (Sigma) (1:25) was applied, followed by biotinylated anti-rabbit antibody and an avidin-biotin conjugate of hourseradish peroxidase (Vector Laboratories, Burlingame, Calif., USA). For immunofluorescence staining, primary antibodies against NeuN (Chemicon International Inc., Temecula, Calif., USA) (1:100), Nestin (BD Biosciences) (1:100), GFAP (glial fibrillary acidic protein, Chemicon International Inc.) (1:100), MAP2 (microtubule-associated protein 2, Chemicon International Inc.) (1:200), and NG2 (Chemicon International Inc.) (1:50) were used. Cy3 or fluorescein-labeled secondary antibodies were then applied for 1 hour at 37° C., and stained with 4′, 6-diamino-2-phenylindole (DAPI) (KPL Inc. Gaithersburg, Mass., USA) to identify cell nuclei. Cells were visualized by confocal fluorescence microscopy (Zeiss, LSM 510).
For RT-PCR, total RNA was isolated from cultured cells using Purescript (Gentra System, Minneapolis, Minn., USA), and 2 μg of total RNA was used for reverse transcription using Superscript II (Invitrogen, Carlsbad, Calif., USA). The cDNA was synthesized using Taq Platinum (Invitrogen) and 0.025 μg/μl oligo(dT). An equal volume of each sample was used to amplify human genes with 1 μM of each of the following primers: for the human nestin gene 5′-CCC TGA CCA CTC CAG TTT A-3′ and 5′-GAG TCC TGG ATT TCCTTC-3′; for the human Oct-4 gene 5′-GTGAAGCTGGAGAAGGAGAAGCTG-3′ and 5′-CAAGGGCCGCAGCTTACACATG-3′; and for the neurofilament light-chain (NF-L) gene 5′-CCC GAC TCA GTT TCA CC-3′ and 5′-CAG CCT TAG ACG CCT C-3′. Human glyceraldehyde-3-phosphate dehydrogenase (GAPDH) primers (Clontech, Palo Alto, Calif., USA) were used as internal controls for the PCR reactions. The cDNA from each sample was amplified for 30 cycles (1 min at 94° C., 1 min at 65° C., and 1 min at 72° C.). The PCR products were then separated by electrophoresis on 1.5% agarose gels. The sequence of each PCR product was confirmed using automatic sequencing.
Placental stem cells obtained according to Example 1 were plated on 35 mm culture dishes without coating, or if coated, with fibronectin, gelatin, or poly-L-Lysine (Sigma). Cells were cultured in serum-free DMEM-LG (Gibco) at various densities and exposed to either 10 ng/ml basic fibroblastic growth factor (b-FGF)/20 ng/ml epidermal growth factor (EGF) (both from R&D), retinoic acid (RA) (Sigma) at 10^−6M, β-mercaptoethanol/dimethysulfoxide/butylated hydroxyanisole (1×10^−5M βME/2% DMSO/100 μM BHA) (Sigma), or 0.5 mM 1-methyl-3-isobutylxanthine (IBMX, Sigma) for 3 to 6 days. Cells were then harvested for RT-PCR and immunocytochemical analysis as described above.
Differentiation to neural-like cells was quantified as a percentage of the total number of […] stem cells grown under differentiation conditions. Cells were stained for NSE expression and analyzed under an invert microscope. Five non-overlapping low power images were captured from each sample. […] Total cell count was determined by staining with 4′,6-diamidino-2-phenylindole (DAPI), which stains nuclei specifically, or with anti-human nuclei antibody (1:50) (Chemicon International Inc.).

[4] = IBMX-treated cultures, immunofluorescence

| SMILES | expression of GFAP [1] | expression of NSE [1] | placental stem cells differentiated (placental stem cells [2]) | morphological changes (cytoplasm retracted, extensions) (placental stem cells [3]; 3 to 6 days in medium, RA 10^−6M, IBMX 0.5 mM, compared with expansion medium) | NSE expression compared with control cells (placental stem cells [3]; 3 to 6 days in medium, immunocytochemical staining) | astrocytes (GFAP) of the total cell count (placental stem cells [3]; [4]) | neurons (MAP2) of the total cell count (placental stem cells [3]; [4]) | oligodendrocytes (NG2) of the total cell count (placental stem cells [3]; [4]) | placental stem cells differentiated (placental stem cells [3]; after 5 days of treatment, three independent experiments) | expression of neural filament light chain (NF-L) by RT-PCR (placental stem cells [3]; after five days of treatment) | dose dependence of induced differentiation (placental stem cells [3]; data not shown) | effect of removal from the culture medium (placental stem cells [3]; data not shown) | time to first morphological changes (placental stem cells [3]; in a portion of placental stem cells) | differentiation into neural-like cells (placental stem cells [3]; after 6 days of incubation, RA 10^−6M, IBMX 0.5 mM, retracted cell bodies and positive NSE staining, % of total cells) |
| --- | --- | --- | --- | --- | --- | --- | --- | --- | --- | --- | --- | --- | --- | --- |
| CC(C)Cn1c(=O)n(C)c(=O)c2[nH]cnc21 [IBMX, 1-methyl-3-isobutylxanthine] | no expression of GFAP | increased expression of NSE | 7% | morphological changes | higher levels of NSE | ~1% | approximately 16% | ~17% | more than 40% | detected | dose-dependent effect | reversion of the cells to their original phenotype | 2 hours |  |
| CC1=C(/C=C/C(C)=C/C=C/C(C)=C/C(=O)O)C(C)(C)CCC1 [RA, retinoic acid] |  |  |  |  |  |  |  |  |  |  |  |  |  | about 10% |
